Experimental data as given in patent US20240317741A1, “NAPHTHYRIDINE DERIVATIVE AS ATR INHIBITOR AND METHOD FOR PREPARING SAME” (WIGEN BIOMEDICINE TECHNOLOGY (SHANGHAI) CO., LTD., priority 2021, published 2024).

How the values were obtained:
MIA PaCa-2 cells = assay: In-vitro anti-proliferative activity against MIA PaCa-2 cells; type: cell-based; conditions: Homo sapiens, 72 h after dosing, intracellular ATP content
Experimental: MIA PaCa-2 cells were seeded on a 384-well plate at 3000 cells/well. After overnight adherence culture, DMSO or the compounds serially diluted 1:5 from 5 μM were added. […] The inhibition percentage of viable cells by the compounds was calculated by comparing with the DMSO group, and the IC50 value was calculated.

[1] = test system: Human colon cancer HT29 cells; assay: In vivo efficacy in HT-29 model, alone and with gemcitabine; parameters: species or system nude mouse; conditions: HT-29 model in nude mice, GMC alone 15 mpk QW IP, once a week; day 21
Experimental: After being subcultured, the cells were collected when they reached the desired amount. 1×10^7 HT29 cells were injected into the left dorsal side of each nude mouse, and the animals were randomly grouped for administration after tumors grew to 100-200 mm^3. The groups were as follows: a solvent control group of 6 mice, a single drug group of 15 mg/kg gemcitabine (GMC), and a combination group of 15 mg/kg gemcitabine and a compound. Gemcitabine was administered intraperitoneally with PBS as a vehicle once a week. The compounds were administered 3 days a week and interrupted for 4 days (3 on/4 off), for 21 consecutive days, and the vehicle was a 0.5% MC suspension containing 1% tween-80. On Tuesday and Thursday each week, tumor volumes and body weight of the mice were measured, and the nude mice were sacrificed on day 21 after the administration. […] The toxicity of the compounds was evaluated according to the body weight of the mice.

Structure (SMILES)	IC50 (MIA PaCa-2 cells)	TGI(%) [1]
C[C@@H]1COCCN1c1cc(C2(C#N)CCN(CC(=O)N(C)C)CC2)c2ccnc(-c3ccn[nH]3)c2n1 [Compound 77]	< 1000 nM	–
C[C@@H]1COCCN1c1cc(C2(C#N)CCN(CCN(C)C)CC2)c2ccnc(-c3ccn[nH]3)c2n1 [Compound 78]	< 1000 nM	–
C[C@@H]1COCCN1c1cc(C2(C#N)CCN(CCS(C)(=O)=O)CC2)c2ccnc(-c3ccn[nH]3)c2n1 [Compound 80]	< 1000 nM	–
CCOP(=O)(CCN1CCC(C#N)(c2cc(N3CCOC[C@H]3C)nc3c(-c4ccn[nH]4)nccc23)CC1)OCC [Compound 81]	< 1000 nM	–
C[C@@H]1COCCN1c1cc(C2(C#N)CCN(CC3CC3)CC2)c2ccnc(-c3ccn[nH]3)c2n1 [Compound 82]	< 1000 nM	–
C[C@@H]1COCCN1c1cc(C2(C#N)CCN(CC3CCC3)CC2)c2ccnc(-c3ccn[nH]3)c2n1 [Compound 83]	< 1000 nM	–
C[C@@H]1COCCN1c1cc(C2(C#N)CCN(CC3CCOC3)CC2)c2ccnc(-c3ccn[nH]3)c2n1 (stereo partly drawn) [Compound 84]	< 1000 nM	–
C[C@@H]1COCCN1c1cc(C2(C#N)CC3CCC(C2)O3)c2ccnc(-c3ccn[nH]3)c2n1 (stereo partly drawn) [Compound 85, 3-(2-((R)-3-methylmorpholino)-8-(1H-pyrazol-5-yl)-1,7-naphthyridin-4-yl)-8-oxabicyclo[3.2.1]octane-3-carbonitrile]	< 1000 nM	–
Nc1ccn([C@@H]2O[C@H](CO)[C@@H](O)C2(F)F)c(=O)n1 [GMC, gemcitabine, reference compound]	–	50.7%
